According to ChEMBL document CHEMBL3046588, “Design, synthesis, and in vitro evaluation of cytotoxic activity of new substituted 1,4-benzoquinones and hydroquinones” (2007):

Test system: not listed separately
Assay: Cytotoxicity against Homo sapiens (human) breast cancer cells after 48 hr by SRB assay
Type: functional
Conditions: Cancer cell lines
For `Cc1nn(-c2ccc(Br)cc2)c(C)c1CC(=O)c1cc(O)ccc1O`, the GI50 was 11.4 µM and the TGI was 36.3 µM.
`COc1ccc(OC)c(-c2cc(-c3ccc(Cl)cc3)nn2-c2ccccc2)c1` showed a GI50 of 17.7 µM and a TGI of 78.6 µM.
Compound `COc1ccc(OC)c(-c2cc(-c3ccccc3)nn2-c2ccc(S(N)(=O)=O)cc2)c1` has a GI50 of 12.3 µM and a TGI of 32.9 µM.
With `COc1ccc(OC)c(-c2cc(-c3ccc(Cl)cc3)nn2-c2ccc(S(N)(=O)=O)cc2)c1` the GI50 was 11.5 µM and the TGI was 34 µM.

Same assay, conditions: Cancer cell lines, pooled result: one value given for 9 cell lines, strains, targets or settings
`Cc1nn(-c2ccc(Br)cc2)c(C)c1CC(=O)c1cc(O)ccc1O` showed an LC50 (concentration giving 50% net cell kill) of 48.8 µM.
In the case of `COc1ccc(OC)c(-c2cc(-c3ccc(Cl)cc3)nn2-c2ccccc2)c1`, the LC50 (concentration giving 50% net cell kill) is reported as 99.8 µM.
For `COc1ccc(OC)c(-c2cc(-c3ccccc3)nn2-c2ccc(S(N)(=O)=O)cc2)c1`, the LC50 (concentration giving 50% net cell kill) was 73 µM.
For `COc1ccc(OC)c(-c2cc(-c3ccc(Cl)cc3)nn2-c2ccc(S(N)(=O)=O)cc2)c1`, the LC50 (concentration giving 50% net cell kill) was 74.7 µM.

Test system: SR
Assay: Cytotoxicity against Homo sapiens (human) SR cells after 48 hr by SRB assay
Type: functional
Conditions: not given
Compound `Cc1nn(-c2ccc(Br)cc2)c(C)c1CC(=O)c1cc(O)ccc1O` has a GI50 of 0.91 µM.

Test system: not listed separately
Assay: Cytotoxicity against Homo sapiens (human) prostate cancer cells after 48 hr by SRB assay
Type: functional
Conditions: Cancer cell lines
For `Cc1nn(-c2ccc(Br)cc2)c(C)c1CC(=O)c1cc(O)ccc1O`, the GI50 was 12.4 µM and the TGI was 47.3 µM.
With `COc1ccc(OC)c(-c2cc(-c3ccc(Cl)cc3)nn2-c2ccccc2)c1` the GI50 was 60.5 µM and the TGI was 100 µM.
With `COc1ccc(OC)c(-c2cc(-c3ccccc3)nn2-c2ccc(S(N)(=O)=O)cc2)c1` the GI50 was 13.9 µM and the TGI was 28.8 µM.
In the case of `COc1ccc(OC)c(-c2cc(-c3ccc(Cl)cc3)nn2-c2ccc(S(N)(=O)=O)cc2)c1`, the GI50 is reported as 7.86 µM and the TGI is reported as 20.8 µM.

Test system: not listed separately
Assay: Cytotoxicity against Homo sapiens (human) renal cancer cells after 48 hr by SRB assay
Type: functional
Conditions: Cancer cell lines
Work on `Cc1nn(-c2ccc(Br)cc2)c(C)c1CC(=O)c1cc(O)ccc1O` yielded a GI50 of 12 µM and a TGI of 36.7 µM.
With `COc1ccc(OC)c(-c2cc(-c3ccc(Cl)cc3)nn2-c2ccccc2)c1` the GI50 was 34.9 µM and the TGI was 77.4 µM.
`COc1ccc(OC)c(-c2cc(-c3ccccc3)nn2-c2ccc(S(N)(=O)=O)cc2)c1` gave a GI50 of 13 µM and a TGI of 29.8 µM.
Work on `COc1ccc(OC)c(-c2cc(-c3ccc(Cl)cc3)nn2-c2ccc(S(N)(=O)=O)cc2)c1` yielded a GI50 of 13.5 µM and a TGI of 39.5 µM.

Test system: not listed separately
Assay: Cytotoxicity against Homo sapiens (human) ovarian cancer cells after 48 hr by SRB assay
Type: functional
Conditions: Cancer cell lines
`Cc1nn(-c2ccc(Br)cc2)c(C)c1CC(=O)c1cc(O)ccc1O` showed a GI50 of 14.1 µM and a TGI of 42.4 µM.
With `COc1ccc(OC)c(-c2cc(-c3ccc(Cl)cc3)nn2-c2ccccc2)c1` the GI50 was 49 µM and the TGI was 85.2 µM.
In the case of `COc1ccc(OC)c(-c2cc(-c3ccccc3)nn2-c2ccc(S(N)(=O)=O)cc2)c1`, the GI50 is reported as 13.6 µM and the TGI is reported as 43.7 µM.
Compound `COc1ccc(OC)c(-c2cc(-c3ccc(Cl)cc3)nn2-c2ccc(S(N)(=O)=O)cc2)c1` has a GI50 of 16.9 µM and a TGI of 50.8 µM.

Test system: not listed separately
Assay: Cytotoxicity against Homo sapiens (human) CNS cancer cells after 48 hr by SRB assay
Type: functional
Conditions: Cancer cell lines
`Cc1nn(-c2ccc(Br)cc2)c(C)c1CC(=O)c1cc(O)ccc1O` gave a GI50 of 11.3 µM and a TGI of 29.8 µM.
Work on `COc1ccc(OC)c(-c2cc(-c3ccc(Cl)cc3)nn2-c2ccccc2)c1` yielded a GI50 of 29.2 µM and a TGI of 84.3 µM.
`COc1ccc(OC)c(-c2cc(-c3ccccc3)nn2-c2ccc(S(N)(=O)=O)cc2)c1` gave a GI50 of 15 µM and a TGI of 31.1 µM.
In the case of `COc1ccc(OC)c(-c2cc(-c3ccc(Cl)cc3)nn2-c2ccc(S(N)(=O)=O)cc2)c1`, the GI50 is reported as 16.2 µM and the TGI is reported as 37.2 µM.

Test system: not listed separately
Assay: Cytotoxicity against Homo sapiens (human) melanoma cellsafter 48 hr by SRB assay
Type: functional
Conditions: Melanoma cell
`Cc1nn(-c2ccc(Br)cc2)c(C)c1CC(=O)c1cc(O)ccc1O` showed a GI50 of 13.1 µM and a TGI of 31.4 µM.
Compound `COc1ccc(OC)c(-c2cc(-c3ccc(Cl)cc3)nn2-c2ccccc2)c1` has a GI50 of 34.9 µM and a TGI of 70 µM.
For `COc1ccc(OC)c(-c2cc(-c3ccccc3)nn2-c2ccc(S(N)(=O)=O)cc2)c1`, the GI50 was 15.3 µM and the TGI was 40.8 µM.
Compound `COc1ccc(OC)c(-c2cc(-c3ccc(Cl)cc3)nn2-c2ccc(S(N)(=O)=O)cc2)c1` has a GI50 of 12.8 µM and a TGI of 36.7 µM.

Test system: not listed separately
Assay: Cytotoxicity against Homo sapiens (human) colon cancer cells after 48 hr by SRB assay
Type: functional
Conditions: Cancer cell lines
With `Cc1nn(-c2ccc(Br)cc2)c(C)c1CC(=O)c1cc(O)ccc1O` the GI50 was 11.2 µM and the TGI was 42.1 µM.
Compound `COc1ccc(OC)c(-c2cc(-c3ccc(Cl)cc3)nn2-c2ccccc2)c1` has a GI50 of 25.2 µM and a TGI of 82.8 µM.
With `COc1ccc(OC)c(-c2cc(-c3ccccc3)nn2-c2ccc(S(N)(=O)=O)cc2)c1` the GI50 was 11.9 µM and the TGI was 27.5 µM.
For `COc1ccc(OC)c(-c2cc(-c3ccc(Cl)cc3)nn2-c2ccc(S(N)(=O)=O)cc2)c1`, the GI50 was 0.95 µM and the TGI was 38.4 µM.

Test system: not listed separately
Assay: Cytotoxicity against Homo sapiens (human) leukemia cells after 48 hr by SRB assay
Type: functional
Conditions: Leukemia cell
In the case of `Cc1nn(-c2ccc(Br)cc2)c(C)c1CC(=O)c1cc(O)ccc1O`, the GI50 is reported as 7.71 µM and the TGI is reported as 46.6 µM.
Compound `COc1ccc(OC)c(-c2cc(-c3ccc(Cl)cc3)nn2-c2ccccc2)c1` has a GI50 of 11.1 µM and a TGI of 78.2 µM.
`COc1ccc(OC)c(-c2cc(-c3ccccc3)nn2-c2ccc(S(N)(=O)=O)cc2)c1` gave a GI50 of 6.94 µM and a TGI of 68.5 µM.
`COc1ccc(OC)c(-c2cc(-c3ccc(Cl)cc3)nn2-c2ccc(S(N)(=O)=O)cc2)c1` showed a GI50 of 4.44 µM and a TGI of 52.1 µM.

Test system: not listed separately
Assay: Cytotoxicity against Homo sapiens (human) non-small cell lung cancer cells after 48 hr by SRB assay
Type: functional
Conditions: Cancer cell lines
Compound `Cc1nn(-c2ccc(Br)cc2)c(C)c1CC(=O)c1cc(O)ccc1O` has a GI50 of 12 µM and a TGI of 32.9 µM.
Work on `COc1ccc(OC)c(-c2cc(-c3ccc(Cl)cc3)nn2-c2ccccc2)c1` yielded a GI50 of 40.6 µM and a TGI of 100 µM.
`COc1ccc(OC)c(-c2cc(-c3ccccc3)nn2-c2ccc(S(N)(=O)=O)cc2)c1` gave a GI50 of 31.4 µM and a TGI of 40.7 µM.
Work on `COc1ccc(OC)c(-c2cc(-c3ccc(Cl)cc3)nn2-c2ccc(S(N)(=O)=O)cc2)c1` yielded a GI50 of 10.9 µM and a TGI of 44.3 µM.

Test system: SF-268
Assay: Cytotoxicity against Homo sapiens (human) SF268 cells assessed as cellular growth after 48 hr by Alamar blue assay
Type: functional
Design: concentration or dose not given beside the values
Conditions: not given
`Cc1nn(-c2ccc(Br)cc2)c(C)c1CC(=O)c1cc(O)ccc1O` gave an Activity of less than 32%.
For `COc1ccc(OC)c(-c2cc(-c3ccc(Cl)cc3)nn2-c2ccccc2)c1`, the Activity was less than 32%.
In the case of `COc1ccc(OC)c(-c2cc(-c3ccccc3)nn2-c2ccc(S(N)(=O)=O)cc2)c1`, the Activity is reported as less than 32%.
For `COc1ccc(OC)c(-c2cc(-c3ccc(Cl)cc3)nn2-c2ccc(S(N)(=O)=O)cc2)c1`, the Activity was less than 32%.

Test system: MCF7
Assay: Cytotoxicity against Homo sapiens (human) MCF7 cells assessed as cellular growth after 48 hr by Alamar blue assay
Type: functional
Design: concentration or dose not given beside the values
Conditions: not given
In the case of `Cc1nn(-c2ccc(Br)cc2)c(C)c1CC(=O)c1cc(O)ccc1O`, the Activity is reported as less than 32%.
Compound `COc1ccc(OC)c(-c2cc(-c3ccc(Cl)cc3)nn2-c2ccccc2)c1` has an Activity of less than 32%.
Work on `COc1ccc(OC)c(-c2cc(-c3ccccc3)nn2-c2ccc(S(N)(=O)=O)cc2)c1` yielded an Activity of less than 32%.
In the case of `COc1ccc(OC)c(-c2cc(-c3ccc(Cl)cc3)nn2-c2ccc(S(N)(=O)=O)cc2)c1`, the Activity is reported as less than 32%.

Test system: NCI-H460
Assay: Cytotoxicity against Homo sapiens (human) NCI-H460 cells assessed as cellular growth after 48 hr by Alamar blue assay
Type: functional
Design: concentration or dose not given beside the values
Conditions: not given
Compound `Cc1nn(-c2ccc(Br)cc2)c(C)c1CC(=O)c1cc(O)ccc1O` has an Activity of less than 32%.
With `COc1ccc(OC)c(-c2cc(-c3ccc(Cl)cc3)nn2-c2ccccc2)c1` the Activity was less than 32%.
`COc1ccc(OC)c(-c2cc(-c3ccccc3)nn2-c2ccc(S(N)(=O)=O)cc2)c1` showed an Activity of less than 32%.
For `COc1ccc(OC)c(-c2cc(-c3ccc(Cl)cc3)nn2-c2ccc(S(N)(=O)=O)cc2)c1`, the Activity was less than 32%.
